Where a name gives a salt, the structure may show the parent alone.
Columns and labels:
Format in all cases: in vivo
Galectin-3 mRNA = assay: Transcriptional profiling (Affymetrix GeneChip) of Galectin-3 mRNA levels in mouse T2DM animal models (db/db and HFD); set-up: key to Direction & Significance, Galectin-3 mRNA: Significant difference between the Group A and Group B median values for Galectin-3 mRNA; NS: No Significant Difference based on statistical comparison of Galectin-3 mRNA values in Group A and Group B; conditions: for Direction & Significance, Galectin-3 mRNA / MFC (median fold change) Galectin-3 mRNA: drug/Disease (vehicle), Day 14; for MFC (median fold change) Galectin-3 mRNA: oral twice/day 14 days; for Effect on Gal-3 mRNA levels in adipose tissue, muscle or liver: mouse models of T2DM (text summary of Table 1)
BNP mRNA [1] = assay: Transcriptional profiling (Affymetrix GeneChip) of BNP mRNA levels in mouse T2DM animal models (db/db and HFD); set-up: key to Direction & Significance, BNP mRNA: Significant difference between the Group A and Group B median values for BNP mRNA; NS: No Significant Difference based on statistical comparison of Galectin-3 mRNA values in Group A and Group B; conditions: drug/Disease (vehicle); for MFC (median fold change) BNP mRNA: oral twice/day 14 days; for Direction & Significance, BNP mRNA: Day 14
BNP mRNA [2] = assay: BNP mRNA level in muscle, Clinical, Rosi/Placebo
[3] = Adipose, HFD-07 high fat diet mouse
[4] = Liver, HFD-07 high fat diet mouse
[5] = Muscle, HFD-07 high fat diet mouse
[6] = Adipose, HFD-06 high fat diet mouse
[7] = Liver, HFD-06 high fat diet mouse
[8] = Muscle, HFD-06 high fat diet mouse

CN(CCOc1ccc(CC2SC(=O)NC2=O)cc1)c1ccccn1 (centres unmarked) [Rosi, rosiglitazone maleate]
Direction & Significance, Galectin-3 mRNA (Galectin-3 mRNA; Adipose, DB-06 db/db mouse): Signif
MFC (median fold change) Galectin-3 mRNA (Galectin-3 mRNA; Adipose, DB-06 db/db mouse): 0.55
Direction & Significance, Galectin-3 mRNA (Galectin-3 mRNA; [3]): Signif
MFC (median fold change) Galectin-3 mRNA (Galectin-3 mRNA; [3]): 0.64
Direction & Significance, Galectin-3 mRNA (Galectin-3 mRNA; Liver, DB-06 db/db mouse): Signif
MFC (median fold change) Galectin-3 mRNA (Galectin-3 mRNA; Liver, DB-06 db/db mouse): 1.33
MFC (median fold change) Galectin-3 mRNA (Galectin-3 mRNA; [4]): 1.07
Direction & Significance, Galectin-3 mRNA (Galectin-3 mRNA; Muscle, DB-06 db/db mouse): Signif
MFC (median fold change) Galectin-3 mRNA (Galectin-3 mRNA; Muscle, DB-06 db/db mouse): 0.87
MFC (median fold change) Galectin-3 mRNA (Galectin-3 mRNA; [5]): 0.80
MFC (median fold change) BNP mRNA (BNP mRNA [1]; Adipose, DB-06 db/db mouse): 1.13
MFC (median fold change) BNP mRNA (BNP mRNA [1]; [3]): 1.29
Direction & Significance, BNP mRNA (BNP mRNA [1]; [3]): Signif
MFC (median fold change) BNP mRNA (BNP mRNA [1]; Liver, DB-06 db/db mouse): 1.68
MFC (median fold change) BNP mRNA (BNP mRNA [1]; [4]): 0.77
MFC (median fold change) BNP mRNA (BNP mRNA [1]; Muscle, DB-06 db/db mouse): 0.58
MFC (median fold change) BNP mRNA (BNP mRNA [1]; [5]): 1.40
MFC (median fold change) BNP mRNA (BNP mRNA [2]): 0.63

CN(C)C(=N)N=C(N)N [Metformin, metformin]
Direction & Significance, Galectin-3 mRNA (Galectin-3 mRNA; Adipose, DB-07 db/db mouse): Increase NS
MFC (median fold change) Galectin-3 mRNA (Galectin-3 mRNA; Adipose, DB-07 db/db mouse): 1.10
Direction & Significance, Galectin-3 mRNA (Galectin-3 mRNA; [6]): Increase NS
MFC (median fold change) Galectin-3 mRNA (Galectin-3 mRNA; [6]): 1.08
Direction & Significance, Galectin-3 mRNA (Galectin-3 mRNA; Liver, DB-07 db/db mouse): Increase NS
MFC (median fold change) Galectin-3 mRNA (Galectin-3 mRNA; Liver, DB-07 db/db mouse): 1.06
Direction & Significance, Galectin-3 mRNA (Galectin-3 mRNA; [7]): Increase NS
MFC (median fold change) Galectin-3 mRNA (Galectin-3 mRNA; [7]): 1.08
Direction & Significance, Galectin-3 mRNA (Galectin-3 mRNA; Muscle, DB-07 db/db mouse): Decrease NS
MFC (median fold change) Galectin-3 mRNA (Galectin-3 mRNA; Muscle, DB-07 db/db mouse): 0.90
Direction & Significance, Galectin-3 mRNA (Galectin-3 mRNA; [8]): Decrease NS
MFC (median fold change) Galectin-3 mRNA (Galectin-3 mRNA; [8]): 0.82
Effect on Gal-3 mRNA levels in adipose tissue, muscle or liver (Galectin-3 mRNA): Neither glyburide nor metformin treatment of the mouse models of T2DM had any significant effect
MFC (median fold change) BNP mRNA (BNP mRNA [1]; Adipose, DB-07 db/db mouse): 0.87
MFC (median fold change) BNP mRNA (BNP mRNA [1]; [6]): 0.67
Direction & Significance, BNP mRNA (BNP mRNA [1]; Adipose, DB-07 db/db mouse): Decrease NS
Direction & Significance, BNP mRNA (BNP mRNA [1]; [6]): Decrease NS
MFC (median fold change) BNP mRNA (BNP mRNA [1]; Liver, DB-07 db/db mouse): 0.88
MFC (median fold change) BNP mRNA (BNP mRNA [1]; [7]): 1.03
Direction & Significance, BNP mRNA (BNP mRNA [1]; Liver, DB-07 db/db mouse): Decrease NS
Direction & Significance, BNP mRNA (BNP mRNA [1]; [7]): Increase NS
MFC (median fold change) BNP mRNA (BNP mRNA [1]; Muscle, DB-07 db/db mouse): 1.09
MFC (median fold change) BNP mRNA (BNP mRNA [1]; [8]): 2.17
Direction & Significance, BNP mRNA (BNP mRNA [1]; Muscle, DB-07 db/db mouse): Increase NS
Direction & Significance, BNP mRNA (BNP mRNA [1]; [8]): Increase NS

COc1ccc(Cl)cc1C(=O)NCCc1ccc(S(=O)(=O)NC(=O)NC2CCCCC2)cc1 [Glyburide, glyburide]
Direction & Significance, Galectin-3 mRNA (Galectin-3 mRNA; Adipose, DB-07 db/db mouse): Increase NS
MFC (median fold change) Galectin-3 mRNA (Galectin-3 mRNA; Adipose, DB-07 db/db mouse): 1.10
Direction & Significance, Galectin-3 mRNA (Galectin-3 mRNA; [6]): Increase NS
MFC (median fold change) Galectin-3 mRNA (Galectin-3 mRNA; [6]): 1.04
Direction & Significance, Galectin-3 mRNA (Galectin-3 mRNA; Liver, DB-07 db/db mouse): Increase NS
MFC (median fold change) Galectin-3 mRNA (Galectin-3 mRNA; Liver, DB-07 db/db mouse): 1.01
Direction & Significance, Galectin-3 mRNA (Galectin-3 mRNA; [7]): Increase NS
MFC (median fold change) Galectin-3 mRNA (Galectin-3 mRNA; [7]): 1.02
Direction & Significance, Galectin-3 mRNA (Galectin-3 mRNA; Muscle, DB-07 db/db mouse): Increase NS
MFC (median fold change) Galectin-3 mRNA (Galectin-3 mRNA; Muscle, DB-07 db/db mouse): 1.19
Direction & Significance, Galectin-3 mRNA (Galectin-3 mRNA; [8]): Decrease NS
MFC (median fold change) Galectin-3 mRNA (Galectin-3 mRNA; [8]): 0.87
Effect on Gal-3 mRNA levels in adipose tissue, muscle or liver (Galectin-3 mRNA): Neither glyburide nor metformin treatment of the mouse models of T2DM had any significant effect
MFC (median fold change) BNP mRNA (BNP mRNA [1]; Adipose, DB-07 db/db mouse): 1.02
MFC (median fold change) BNP mRNA (BNP mRNA [1]; [6]): 1.16
Direction & Significance, BNP mRNA (BNP mRNA [1]; Adipose, DB-07 db/db mouse): Increase NS
Direction & Significance, BNP mRNA (BNP mRNA [1]; [6]): Increase NS
MFC (median fold change) BNP mRNA (BNP mRNA [1]; Liver, DB-07 db/db mouse): 0.85
MFC (median fold change) BNP mRNA (BNP mRNA [1]; [7]): 0.93
Direction & Significance, BNP mRNA (BNP mRNA [1]; Liver, DB-07 db/db mouse): Decrease NS
Direction & Significance, BNP mRNA (BNP mRNA [1]; [7]): Decrease NS
MFC (median fold change) BNP mRNA (BNP mRNA [1]; Muscle, DB-07 db/db mouse): 0.83
MFC (median fold change) BNP mRNA (BNP mRNA [1]; [8]): 3.17
Direction & Significance, BNP mRNA (BNP mRNA [1]; Muscle, DB-07 db/db mouse): Decrease NS
Direction & Significance, BNP mRNA (BNP mRNA [1]; [8]): Increase NS
